Tested on: HN5 cells
Experiment: Rescue experiment: antibody pre-incubated with GPR87 N-terminal peptide
Format: cell-based, human
Conditions: 50 ug/ml antibody, increasing amounts of peptide, Fig. 7B
Description: Antibody targeting of hGPR87 on living cells is performed as follows: For antibody applications on living HN5 cells, a rabbit anti-hGPR87, directed against the N-terminus of hGPR87 (Novus Biologicals) is used (in Fig. 7A: N-term). HN5 cells are seeded (75000/6-well and 3000/96-well) the day prior to the antibody treatment. The antibody is used at a concentration of 50 ug/ml in medium without serum. 48 h after antibody addition the cells are either lysed for western blot analysis or analysed by AlamarBlue staining. Briefly, 10 ul of AlamarBlue reagent (Biosource, Camarillo USA/CA) are added to 100 ul medium and incubated until a change in color can be recognized (~6 hours). As a control, 50ug/ml antibody targeting C-terminal domain of human GPR87 is used (in Fig. 7A: C-term). Since antibodies are dissolved in PBS containing 0.01 %sodium azide, 0.01% sodium azide in PBS is added to the cells as a control to exclude toxic side effects (SA ctrl in Fig. 7A).
To determine the specificity of the anti-GPR87 antibody recognizing the N-terminus, in a so-called "rescue experiment", a peptide covering the first 46 amino acids of SEQ ID NO:2, is added. (The amounts used are 50 ug/ml of antibody and increasing amounts of GPR87 N-terminal peptide). […] The reversibility of the effects (proliferation and viability) correlates with the concentration of the blocking peptide (Fig. 7B).

Substance: GPR87 N-terminal peptide: a peptide covering the first 46 amino acids of SEQ ID NO:2 (MGFNLTLAKLPNNELHGQESHNSGNRSDGPGKNTTLHNEFDTIVLP)
- reversal of the pro-apoptotic, anti-proliferative effect of the antibody: can be reversed
